What was measured:
HeLa cells = experiment: Morphological analysis, rapid panoptic staining; type: cell-based, human; conditions: 72 h, at IC50 and 2 × IC50
Experimental: Following the screening of IC50 values and SI in solid tumor cells, indications of potential cell death were explored in the most sensitive cell line. The morphological changes were evaluated according to protocols previously published with modifications. Thus, HeLa cells were seeded in 12-well plates at a concentration of 4 × 10^5 cells/mL and incubated overnight for adhesion. […] After the treatment period, the medium was aspirated, and the plate was washed twice with PBS. The cells were fixed and stained using the Panoptic Rapid Kit following the manufacturer’s protocol. Morphological analyses were conducted to observe cellular alterations indicative of cell death, including cellular volume reduction, membrane integrity, karyolysis, pyknosis, karyorrhexis, apoptotic bodies, vacuoles, and cellular debris.

[1] = system: peripheral blood erythrocytes from Swiss mice; experiment: Alkaline comet assay in vivo; set-up: species or system Mus musculus; conditions: for damage frequency (comet assay) compared to negative control / damage index (comet assay) compared to negative control: intraperitoneally
Experimental: (§1) Forty female Mus musculus mice (Swiss strain) were used. The animals were divided into 8 groups, with 5 animals each: G1—negative control (NC) treated with the vehicle solution intraperitoneally; G2—positive control (PC) treated intraperitoneally with cyclophosphamide at a dose of 30 mg/kg; groups exposed to the BV3 derivative—Group BV3—I intraperitoneally at doses of 2000 mg/kg; Group BV3—II 1000 mg/kg; Group BV3—III 500 mg/kg; and groups exposed to BV5—Group BV5—I, received BV5 intraperitoneally at doses of 2000 mg/kg; Group BV5—II 1000 mg/kg; and Group BV5—III 500 mg/kg. For the comet assay, approximately 0.5 mL of blood from each animal was collected via the tail vein 6–8 h after administration of the compounds. For the micronucleus test, 1 mL of blood from each animal was collected by cardiac puncture 48 h after administration of the compounds. For that collection, the mice were anesthetized with ketamine (100 mg/kg) and xylazine (10 mg/kg), intraperitoneally. Immediately after blood collection, the animals were euthanized with high doses of anesthetics (ketamine 300 mg/kg and xylazine 30 mg/kg). The in vivo experiments were approved by the Ethics Committee on the Use of Animals (CEUA) of the Federal University of Pernambuco, under process no. 004/2023.
The female mice (n = 40) were equally distributed into 8 experimental groups; the groups were composed of 5 female animals each. After administering the solutions and compounds to the groups, blood samples were taken 6 and 8 h after treatment. Subsequently, 15 µL of blood was used, which was homogenized with 100 µL of low-melting-point agarose (LM agarose) and subsequently deposited on slides previously prepared with standard agarose. The slides were covered with coverslips and left at 4 °C for 10 min. After refrigeration, the coverslips were removed and the slides were placed in a lysis solution (2.5 M NaCl, 100 mM EDTA, 10 mM tris, 1% Triton x-100, 10% DMSO, pH 13) for 48 h. After lysis, the slides were left in an alkaline electrophoresis buffer ([…] and […] EDTA disodium salt, pH 13) for 20 min to unroll the DNA and then subjected to electrophoresis in a horizontal vat for 20 min, with a current of ± 300 mA and potential difference of 32 V. After electrophoresis, the slides were neutralized for 15 min in 0.4 M tris-HCl buffer, pH 7.5, and fixed for 5 min in absolute ethanol. The slides were stained with 100 µL of a 1 µg/mL acridine orange solution. All test steps were carried out under red light. To analyze damage levels, 100 nucleoids from each animal were evaluated for damage level. For this, each nucleoid was classified into one of five classes according to the proportion of DNA in the comet’s tail and head: 0 (no damage); 1 (little apparent damage); 2 (medium damage); 3 (medium damage with longer tail); and 4 (maximum damage). The Damage Index (DI) was thus calculated according to the formula DI=0×nºclass comets 0+1×nºclass comets 1+2×nºclass comets 2+3×nºclass comets 3+4×(nºclass comets 4)
Thus, the values obtained could range from 0 (no damage) to 400 (maximum damage). Additionally, the Frequency of damage (FD) was calculated based on the percentage of all nucleoids with some damage (class 1 to class 4) relative to the total number of nucleoids counted per animal: FD=nºofdamaged comets−nºclass comets 0×100/(nºtotal)

[2] = system: polychromatic erythrocytes (PCE) from Swiss mice; experiment: Micronucleus assay in vivo; set-up: species or system Mus musculus; conditions: intraperitoneally, 500, 1000 and 2000 mg/kg, blood 48 h after administration
Experimental: as §1, with “Immediately after blood collection, the animals were euthanized with high doses of anesthetics (ketamine 300 mg/kg and xylazine 30 mg/kg). The in vivo experiments were approved by the Ethics Committee on the Use of Animals (CEUA) of the Federal University of Pernambuco, under process no. 004/2023.” left out
The same mice from the comet test (females n = 40) were used, equally with the 8 experimental groups mentioned above. […] Two slides were prepared per animal, in which 2000 polychromatic erythrocytes (PCE) were analyzed for the presence of micronuclei. The analysis was carried out using a Zeiss Axio Imager M2 fluorescence microscope, with a 40× objective and Alexa Fluor 488 filter (Carl Zeiss AG™, Germany).

[3] = set-up: method as in PMID 35934135; conditions: cited from earlier work; for toxicity category, Globally Harmonized System of Classification and Labelling of Chemicals: acute toxicity; for deaths in acute toxicity experiments: dose of 2000 mg/kg

Structure (SMILES) | morphological changes (HeLa cells) | damage frequency (comet assay) compared to negative control ([1]; 2000 mg/kg) | damage index (comet assay) compared to negative control ([1]; 2000 mg/kg) | damage frequency (comet assay) compared to negative control ([1]; 500 and 1000 mg/kg) | damage index (comet assay) compared to negative control ([1]; 500 and 1000 mg/kg) | number of micronuclei compared to negative control [2] | toxicity category, Globally Harmonized System of Classification and Labelling of Chemicals [3] | deaths in acute toxicity experiments [3] | frequency of damage (comet assay) ([1]; any of the tested doses (500, 1000, 2000 mg/kg))
CC1(C)CCC2=C(O1)c1ccccc1/C(=N/NC(=S)Nc1ccc([N+](=O)[O-])cc1)C2=O [BV3, 2-(2,2-dimethyl-5-oxo-3,4-dihydro-2H-benzo[h]chromen-6(5H)-ylidene)-N-(4nitrophen-yl)thio-carbohydrazide] | reduced cellular volume, cells with condensed chromatin, and cellular debris | decrease | decrease | no significant differences | no significant differences | no differences | Category 5 | no deaths | 
Cc1ccc(NC(=S)N/N=C2\C(=O)C3=C(OC(C)(C)CC3)c3ccccc32)cc1 [BV5, 2-(2,2-dimethyl-5-oxo-3,4-dihydro-2H-benzo[h]chromen-6(5H)-ylidene)-N-(p-tolyl)-thiocarbohydrazide] | loss of membrane integrity, reduced cellular volume, presence of fragmented/pyknotic nuclei, chromatin condensation, and cellular debris |  | increase |  | no differences | no differences | Category 5 | no deaths | no difference

Reference: publication PMC12196213, “New Insights into the Anticancer Effects and Toxicogenomic Safety of Two β-Lapachone Derivatives” (Pharmaceuticals, 2025)
